Data published in patent US10696707B2, “Polyene macrolide derivative” (Shionogi & Co., Ltd., priority 2014, dated 2020).
Converted amounts (≈) assume the structure as drawn. Like-named read-outs stand apart in the source and are kept apart here.

What was measured:
C. albicans ATCC90028 = test: Antifungal activity test, MIC by broth microdilution (CLSI M27-A3); type: cell-based; details: C. albicans ATCC90028, broth microdilution, 35° C., 24-48 hours, 100% inhibition
Method in brief: (§1)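 CLSI broth microdilution in RPMI 1640 with 2% glucose, 0.165 mol/L MOPS, pH 7.0; two-fold DMSO dilutions. MIC = lowest concentration giving 100% inhibition versus growth control.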

A. flavus ATCC204304 = test: Antifungal activity test, MIC by broth microdilution (CLSI M38-A2); type: cell-based; details: A. flavus ATCC204304, broth microdilution, 35° C., 24-48 hours, 100% inhibition
Method in brief: as §1

A. fumigatus ATCC204305 = test: as above; type: cell-based; details: A. fumigatus ATCC204305, broth microdilution, 35° C., 24-48 hours, 100% inhibition
Method in brief: as §1

[1] = tested on: red blood cells (5% RBC suspension); test: Test Example 2-2: in vitro hemolytic activity test (upper limit 200 μmol/L); type: cell-based; details: Test Example 2-2, hemolysis method 200 (upper concentration 200 μmol/L), 5% RBC suspension, 37° C., one hour, read-out: hemolysis IC50
Experimental: Nephrotoxic potentials of the compounds of the present invention whose X is —N(R^F)—CO—X^1 and X^1 is the group represented by formula (III) and T is —N(R^a5)— were investigated by in vitro hemolytic activity test under the condition that the upper limit was 200 μmol/L as the required concentration to 50% of hemolysis (IC50).
Defibrinated sterile blood was centrifuged at 700×g for 3 minutes and, and the supernatant was removed for 100% of red blood cells. After the cleaning with physiological saline, the washed blood cells was suspended in the medium (Earle's balanced salt sodium, bicarbonate, 0.1 g/L L-glutamine without phenol red), and was diluted by 5% (5% RBC suspension).
The washed blood was diluted by 5% in water for injection (solution of complete hemolysis), and was used as the indication of optical density for complete hemolysis.
The compounds of the present invention solution in DMSO (several and doubling dilutions starting from 10 mmol/L), DMSO as the negative control, and Amphotericin B as the positive control were used, and each 5 μL of these was added in to a well of V-form 96 well type microplate. Finally, the maximum concentration of the compounds of the present invention solution in DMSO was 200 μmol/L by adding 245 μL of the medium or 5% RBC suspension into the well.
Two hundred fifty μL of the solution of complete hemolysis was added into another well and the microplate was incubated at 37° C. in 5% of CO2 concentration for an hour.
After the incubation, each 100 μL of supernatants in wells was collected by centrifugation of the microplate at 300×g for 5 minutes and was located on a well of flat-form 96 well type microplate. An absorbance of each supernatant was measured at wavelength of 540 nm.
Percent hemolysis was calculated by using the followed equation. The required concentration to 50% of hemolysis (IC50) was calculated based on the percent hemolysis. […] Hemolysis (%)=(CR−VM)×100÷(VL−VR) Where:
CR: Absorbance of 5% RBC suspension incubated with the compounds of the present invention solution in DMSO
VM: Absorbance of medium incubated with the compounds of the present invention solution in DMSO
VL: Absorbance of solution of complete hemolysis
VR: Absorbance of 5% RBC suspension incubated with DMSO
The “>200” in the table means above IC50 value exceeded the upper concentration 200 μmol/L.

[2] = tested on: red blood cells (5% RBC suspension); test: Test Example 2-1: in vitro hemolytic activity test (upper limit 50, 80, 100 or 200 μmol/L); type: cell-based; details: Erythrocyte, 1 h, read-out: hemolysis IC50
Method in brief: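 A 5% suspension of washed red cells in Earle's medium was exposed to doubling dilutions of compound from DMSO, with maxima of 50, 80, 100 or 200 μmol/L final, for 1 h at 37 °C, 5% CO2. Supernatant absorbance at 540 nm was normalised to water-lysed cells. IC50 is the concentration giving 50% hemolysis; ">" values exceed the top concentration.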

[3] = Test Example 4: nephrotoxicity, kidney marker gene expression by quantitative RT-PCR after intravenous administration; type: in vivo; details: mouse, kidney, mice, nephrotoxicity positive when ΔΔCt of two-third of target genes (Kim1, Timp1, Lcn2) >3
Experimental: The expression level of marker genes for nephrotoxicity was determined by quantitative RT-PCR to evaluate nephrotoxicity of the compound of the present invention. The compound of the present invention or vehicle was intravenously administered to mice and their kidneys were isolated. After removal of the kidney capsule, all of the kidneys were sliced into two equal halves, and stored at −80° C. in RNAlater® (Ambion) until use. Samples were disrupted and homogenized in QIAzol Lysis Reagent with TissueLyser (Qiagen), and total RNA was extracted using an RNeasy® Mini kit (Qiagen). Total RNA concentrations were determined to read OD260 by absorptiometer.
The level of expression of the following target genes was determined using one-step quantitative real-time PCR: Kim1, Timp1, and Lcn2. Total RNA (80 ng/2 μL) was used as the template, and TaqMan Gene Expression Assays (Applied Biosystems, for Haver1 (Kim1), assay ID: Mm00506686_m1; Timp1, Mm01341361_m1; Lcn2, Mm01324470_m1) or TaqMan Endogenous Controls (Gapdh, predesigned assay reagent supplied by ABI, Applied Biosystems) were employed as gene-specific probe and primer sets. Quantitative RT-PCR was performed using a QuantiTect™ Probe RT-PCR kit (Qiagen), and transcript levels were quantitated with an Applied Biosystems 7900HT Fast Real Time PCR System (Applied Biosystems). Reverse transcription and amplification conditions were set as follows: 50° C. for 30 min, 95° C. for 15 min, followed by 40 cycles at 95° C. for 15 s and 60° C. for 1 min. The resulting cycle threshold (Ct) value was processed based on the comparative Ct method (ΔΔCt Method), where Gapdh was used as an endogenous reference gene to normalize the expression level of target genes.
The ΔCt was calculated as follows: Ct, Gapdh−Ct, target gene.
The ΔΔCt was calculated as follows: ΔCt, treated sample−ΔCt, average of vehicle control sample.
Higher ΔΔCt values indicate higher expression rates of the target gene and therefore high risk for nephrotoxicity.

[4] = Candida albicans, read-out: MIC
[5] = Aspergillus flavus, read-out: MIC
[6] = Aspergillus fumigatus, read-out: MIC

| SMILES | MIC (C. albicans ATCC90028) | MIC (A. flavus ATCC204304) | MIC (A. fumigatus ATCC204305) | MIC (C. albicans ATCC90028; [4]) | MIC (A. flavus ATCC204304; [5]) | MIC (A. fumigatus ATCC204305; [6]) | IC50 [1] | IC50 [2] | MTD [3] | IC50 ([1]; Erythrocyte, 1 h) |
| --- | --- | --- | --- | --- | --- | --- | --- | --- | --- | --- |
| C[C@@H]1[C@H](O)[C@@H](C)/C=C/C=C/C=C/C=C/C=C/C=C/C=C/[C@H](O[C@@H]2O[C@H](C)[C@@H](O)[C@H](N)[C@@H]2O)C[C@@H]2O[C@](O)(C[C@@H](O)C[C@@H](O)[C@H](O)CC[C@@H](O)C[C@@H](O)CC(=O)O[C@H]1C)C[C@H](O)[C@H]2NC(=O)NNC(=O)C(CO)CO [I-240] | 0.5 µg/mL (≈ 0.474 µM) | 0.5 µg/mL (≈ 0.474 µM) | 1 µg/mL (≈ 0.948 µM) | – | – | – | > 200 µM | – | – | – |
| C[C@@H]1[C@H](O)[C@@H](C)/C=C/C=C/C=C/C=C/C=C/C=C/C=C/[C@H](O[C@@H]2O[C@H](C)[C@@H](O)[C@H](N)[C@@H]2O)C[C@@H]2O[C@](O)(C[C@@H](O)C[C@@H](O)[C@H](O)CC[C@@H](O)C[C@@H](O)CC(=O)O[C@H]1C)C[C@H](O)[C@H]2C(=O)NC(CO[C@H]1O[C@H](CO)[C@@H](O)[C@H](O)[C@@H]1O)CO[C@H]1O[C@H](CO)[C@@H](O)[C@H](O)[C@@H]1O [I-396] | – | – | – | – | – | – | – | > 100 µM | 16 mg/kg | – |
| C[C@@H]1[C@H](O)[C@@H](C)/C=C/C=C/C=C/C=C/C=C/C=C/C=C/[C@H](O[C@@H]2O[C@H](C)[C@@H](O)[C@H](N)[C@@H]2O)C[C@@H]2O[C@](O)(C[C@@H](O)C[C@@H](O)[C@H](O)CC[C@@H](O)C[C@@H](O)CC(=O)O[C@H]1C)C[C@H](O)[C@H]2NC(=O)NNC=O [I-43] | 0.25 µg/mL (≈ 0.255 µM) | 1 µg/mL (≈ 1.02 µM) | 1 µg/mL (≈ 1.02 µM) | – | – | – | > 200 µM | – | – | – |
| C[C@@H]1[C@H](O)[C@@H](C)/C=C/C=C/C=C/C=C/C=C/C=C/C=C/[C@H](O[C@@H]2O[C@H](C)[C@@H](O)[C@H](N)[C@@H]2O)C[C@@H]2O[C@](O)(C[C@@H](O)C[C@@H](O)[C@H](O)CC[C@@H](O)C[C@@H](O)CC(=O)O[C@H]1C)C[C@H](O)[C@H]2NC(=O)NNC(CO)CO [I-272] | – | – | – | 0.25 µg/mL (≈ 0.243 µM) | 0.5 µg/mL (≈ 0.487 µM) | 0.5 µg/mL (≈ 0.487 µM) | – | – | – | > 200 µM |

More lines, main results first:

| MIC (C. albicans ATCC90028) | MIC (A. flavus ATCC204304) | MIC (A. fumigatus ATCC204305) | MIC (C. albicans ATCC90028; [4]) | MIC (A. flavus ATCC204304; [5]) | MIC (A. fumigatus ATCC204305; [6]) | SMILES | IC50 [1] | IC50 [2] | MTD [3] | IC50 ([1]; Erythrocyte, 1 h) |
| --- | --- | --- | --- | --- | --- | --- | --- | --- | --- | --- |
| – | – | – | 0.25 µg/mL (≈ 0.251 µM) | 1 µg/mL (≈ 1 µM) | 1 µg/mL (≈ 1 µM) | CC(=O)NNC(=O)N[C@H]1[C@@H]2C[C@@H](O[C@@H]3O[C@H](C)[C@@H](O)[C@H](N)[C@@H]3O)/C=C/C=C/C=C/C=C/C=C/C=C/C=C/[C@H](C)[C@@H](O)[C@@H](C)[C@H](C)OC(=O)C[C@H](O)C[C@H](O)CC[C@@H](O)[C@H](O)C[C@H](O)C[C@](O)(C[C@@H]1O)O2 [I-19] | – | – | – | > 200 µM |
| 0.25 µg/mL (≈ 0.247 µM) | 0.5 µg/mL (≈ 0.494 µM) | 1 µg/mL (≈ 0.988 µM) | – | – | – | C[C@@H]1[C@H](O)[C@@H](C)/C=C/C=C/C=C/C=C/C=C/C=C/C=C/[C@H](O[C@@H]2O[C@H](C)[C@@H](O)[C@H](N)[C@@H]2O)C[C@@H]2O[C@](O)(C[C@@H](O)C[C@@H](O)[C@H](O)CC[C@@H](O)C[C@@H](O)CC(=O)O[C@H]1C)C[C@H](O)[C@H]2NC(=O)NNC(=O)NO [I-218] | > 200 µM | – | – | – |
